# Test results published in patent publication US20130274127A1, “GENE EXPRESSION MARKERS FOR PREDICTION OF RESPONSE TO PHOSPHOINOSITIDE 3-KINASE INHIBITORS” (GENOMIC HEALTH, INC., priority 2012, published 2013).
# Legend:
# OVCAR-4 tumor cell line = experiment: siRNA knockdown and cell viability assay; assay type: cell-based, human
# [1] = test system: MDA-MB-231 tumor cell line; experiment: siRNA knockdown and cell viability assay; assay type: cell-based, human
smiles,measurement,setting,value
Cn1c(=O)n(-c2ccc(C(C)(C)C#N)cc2)c2c3cc(-c4cnc5ccccc5c4)ccc3ncc21 [NVP-BEZ235],Sensitivity to NVP-BEZ235 (cell viability) upon loss of OGT expression,OVCAR-4 tumor cell line; OGT siRNA + 10 nM NVP-BEZ235,no effect
same,Sensitivity of cell line to NVP-BEZ235,OVCAR-4 tumor cell line; data not shown,highly NVP-BEZ235-resistant
same,Sensitivity to NVP-BEZ235 (cell viability) upon loss of OGT expression,[1]; OGT siRNA + 10 nM NVP-BEZ235,increased sensitivity
same,Sensitivity of cell line to NVP-BEZ235,[1]; data not shown,resistant
